Key:
HCC70 = assay: cells; details: Homo sapiens, HCC70, 72 h
Description: Antiproliferative activity against human HCC70 cells assessed as inhibition of cell proliferation incubated for 72 hrs by celltiter-glo assay

CDK7/Cyclin H/MNAT1 = CDK7/Cyclin H/MNAT1 (Homo sapiens, UniProt P50613); assay: Inhibition of CDK7/CyclinH/MAT1 (unknown origin) in presence of ATP by kinase activity assay; assay type: protein-complex assay
[1] = biological target: Cyclin-dependent kinase 7/ cyclin H (Homo sapiens, UniProt P50613); assay: Binding affinity to CDK7/CyclinH (unknown origin) assessed as dissociation constant by SPR assay; assay type: protein-complex assay
[2] = Efflux ratio of permeability in human Caco-2 cells; assay type: ADME, cell-based
[3] = Metabolic stability in mouse liver microsomes assessed as intrinsic clearance; assay type: ADME, Microsome; details: read-out: CLH
[4] = Oral bioavailability in female Balb/c nude mouse at 10 mg/kg; assay type: ADME, organism-based; details: in vivo
[5] = AUC(0 to infinity) in female Balb/c nude mouse at 1 mg/kg, iv; assay type: ADME, organism-based; details: in vivo
[6] = Permeability in human Caco-2 cells; assay type: ADME, cell-based; details: read-out: permeability
[7] = Half life in female Balb/c nude mouse at 10 mg/kg, po; assay type: ADME, organism-based; details: in vivo
[8] = Cmax in female Balb/c nude mouse at 10 mg/kg, po; assay type: ADME, organism-based; details: in vivo
[9] = AUC(0 to infinity) in female Balb/c nude mouse at 10 mg/kg, po; assay type: ADME, organism-based; details: in vivo
[10] = Volume of distribution at steady state in female Balb/c nude mouse at 1 mg/kg, iv; assay type: ADME, organism-based; details: in vivo, read-out: Vdss
[11] = Clearance in female Balb/c nude mouse at 1 mg/kg, iv; assay type: ADME, organism-based; details: in vivo
OVCAR-3 = assay: cells; details: Homo sapiens, OVCAR-3, 72 h
Description: Antiproliferative activity against human OVCAR-3 cells assessed as inhibition of cell proliferation incubated for 72 hrs by celltiter-glo assay

Sequence of Cyclin-dependent kinase 7/ cyclin H (P51946 whole entry): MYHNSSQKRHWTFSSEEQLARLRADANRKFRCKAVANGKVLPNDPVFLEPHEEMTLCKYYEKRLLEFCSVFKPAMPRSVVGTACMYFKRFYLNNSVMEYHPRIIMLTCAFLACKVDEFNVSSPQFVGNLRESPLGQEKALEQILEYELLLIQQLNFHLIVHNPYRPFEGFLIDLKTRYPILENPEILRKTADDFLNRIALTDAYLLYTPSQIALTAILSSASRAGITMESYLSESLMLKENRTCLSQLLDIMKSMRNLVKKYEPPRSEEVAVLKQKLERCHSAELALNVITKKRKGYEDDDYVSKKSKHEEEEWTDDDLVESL
Sequence of Cyclin-dependent kinase 7/ cyclin H (P50613 whole entry): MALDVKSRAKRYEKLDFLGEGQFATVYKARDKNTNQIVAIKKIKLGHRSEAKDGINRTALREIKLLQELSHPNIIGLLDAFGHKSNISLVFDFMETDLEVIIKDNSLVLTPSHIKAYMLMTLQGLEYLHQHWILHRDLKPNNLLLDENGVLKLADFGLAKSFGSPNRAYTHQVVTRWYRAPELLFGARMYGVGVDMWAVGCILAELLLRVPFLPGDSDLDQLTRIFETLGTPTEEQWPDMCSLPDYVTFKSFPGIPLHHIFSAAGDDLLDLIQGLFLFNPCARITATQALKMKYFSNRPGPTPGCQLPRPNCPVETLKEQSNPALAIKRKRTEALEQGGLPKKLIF
Sequence of CDK7/Cyclin H/MNAT1 (P51946 whole entry): as the sequence (P51946 whole entry) above
Sequence of CDK7/Cyclin H/MNAT1 (P50613 whole entry): as the sequence (P50613 whole entry) above
Sequence of CDK7/Cyclin H/MNAT1 (P51948 whole entry, further chain): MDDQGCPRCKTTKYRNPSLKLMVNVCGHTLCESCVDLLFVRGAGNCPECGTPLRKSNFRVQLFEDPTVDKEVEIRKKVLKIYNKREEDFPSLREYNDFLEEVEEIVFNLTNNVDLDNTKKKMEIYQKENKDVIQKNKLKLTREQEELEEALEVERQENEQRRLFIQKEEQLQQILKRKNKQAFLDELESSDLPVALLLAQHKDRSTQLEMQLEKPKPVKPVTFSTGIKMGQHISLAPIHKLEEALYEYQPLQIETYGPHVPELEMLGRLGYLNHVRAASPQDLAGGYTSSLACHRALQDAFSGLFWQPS

Row | IC50 (CDK7/Cyclin H/MNAT1) [nM] | Kd [1] [nM] | efflux ratio [2] | CLint scaled [3] [mL/min/kg] | bioavailability [4] [%] | AUC(0-inf) [5] [ng·h/mL] | Papp [6] [×10⁻⁶ cm/s] | half-life [7] [h] | Cmax [8] [ng/mL] | AUC(0-inf) [9] [ng·h/mL] | Vd [10] [L/kg] | clearance [11] [mL/min/kg] | IC50 (OVCAR-3) [nM] | SMILES | IC50 (HCC70) [nM]
1 | 11 |  |  |  |  |  |  |  |  |  |  |  |  | O=C1NCCOCCN2CC[C@@H](C2)Nc2ncc(C(F)(F)F)c(n2)-c2c[nH]c3cc1ccc23 | 1820
2 | 4.6 | 0.14 |  |  |  |  |  |  |  |  |  |  |  | O=C1NCCCCN[C@@H]2CC[C@H](C2)Nc2ncc(C(F)(F)F)c(n2)-c2c[nH]c3cc1ccc23 | 207
3 |  | 0.16 | > 15.1 | < 13.4 | 0.7 | 333 | < 0.48 | 1.4 | 16.8 | 26 | 3.6 | 49.3 |  | CP(C)(=O)c1c2ccc3c(c[nH]c13)-c1nc(ncc1C(F)(F)F)N[C@H]1CC[C@@H](C1)NCCCCNC2=O | 33
4 |  | 0.06 | > 35.8 | < 13.4 | 22.8 | 163 | < 0.48 | 2 | 89.4 | 412 | 12 | 95.9 |  | CP(C)(=O)c1c2ccc3c(c[nH]c13)-c1nc(ncc1C(F)(F)F)N[C@H]1CC[C@@H](C1)NCCOCCNC2=O | 29
5 |  |  |  |  |  |  |  |  |  |  |  |  |  | CP(C)(=O)c1c2ccc3c(c[nH]c13)-c1nc(ncc1C(F)(F)F)N[C@H]1CC[C@@H](C1)NCCCCCNC2=O | 202
6 |  |  | 22.3 |  |  |  | 0.9 |  |  |  |  |  | 62.6 | CN1C[C@H](F)CCN(C)[C@H]2CC[C@@H](C2)Nc2ncc(C(F)(F)F)c(n2)-c2c[nH]c3c(P(C)(C)=O)c(ccc23)C1=O | 44
